Source: patent US20230085307A1, “PYRIDAZINONE COMPOUND AND HERBICIDE” (NISSAN CHEMICAL CORPORATION, priority 2019, published 2023)

Tests used:
[1] = system: persian speedwell; assay: Test Example 5: herbicidal effect by foliage application, plastic box (Table 20, symbol R); type: in vivo, Persian speedwell (Veronica persica); conditions: 320 g/ha
Outline: (§1)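 Sow seeds spot-wise in sterilized diluvial soil; cover with ~1.5 cm soil. Grow 14 days in greenhouse, 25° C. to 30° C. Spray foliage with emulsion diluted to predetermined amount. Rate effect after 3 weeks.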

[2] = system: Italian ryegrass; assay: Test Example 5: herbicidal effect by foliage application, plastic box (Table 20, symbol K); type: in vivo, Italian ryegrass (Lolium multiflorum); conditions: 320 g/ha
Outline: as §1

[3] = system: blackgrass; assay: Test Example 5: herbicidal effect by foliage application, plastic box (Table 20, symbol J); type: in vivo, blackgrass (Alopecurus myosuroides); conditions: 320 g/ha
Outline: as §1

[4] = system: chickweed; assay: Test Example 5: herbicidal effect by foliage application, plastic box (Table 20, symbol P); type: in vivo, common chickweed (Stellaria media); conditions: 320 g/ha
Outline: as §1

[5] = system: oval-leafed pondweed; assay: Test Example 1: herbicidal activity, application before weed generation under submerged conditions (Table 16, symbol C); type: in vivo, oval-leafed pondweed (Monochoria vaginalis); conditions: amount of applied herbicide 320 g/ha
Outline: (§2)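 Alluvial soil was flooded to 4 cm depth, weed seeds were sown mixed and 2.5-leaf rice seedlings were transplanted. On sowing day, the compound's emulsion, diluted in water to a set dose, was applied to the water surface. Plants grew at 25–30 °C and were scored 0–5 after three weeks.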

[6] = system: green foxtail; assay: Test Example 5: herbicidal effect by foliage application, plastic box (Table 20, symbol G); type: in vivo, green foxtail (Setaria viridis); conditions: 320 g/ha
Outline: as §1

[7] = system: velvetleaf; assay: Test Example 5: herbicidal effect by foliage application, plastic box (Table 20, symbol M); type: in vivo, velvetleaf (Abutilon theophrasti); conditions: 320 g/ha
Outline: as §1

[8] = system: Japanese bulrush; assay: Test Example 1: herbicidal activity, application before weed generation under submerged conditions (Table 16, symbol B); type: in vivo, Japanese bulrush (Schoenoplectus juncoides); conditions: amount of applied herbicide 320 g/ha
Outline: as §2

[9] = system: late watergrass; assay: Test Example 1: herbicidal activity, application before weed generation under submerged conditions (Table 16, symbol A); type: in vivo, late watergrass (Echinochloa oryzicola); conditions: amount of applied herbicide 320 g/ha
Outline: as §2

[10] = system: Chinese sprangletop; assay: Test Example 3: herbicidal effect by foliage application, Wagner pot (Table 18, symbol D); type: in vivo, chinese sprangletop (Leptochloa chinensis); conditions: 320 g/ha
Outline: (§3)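 Plants were sown in alluvial soil held under 0.1–0.5 cm standing water and grown 14 days in a greenhouse at 25–30 °C. An emulsifiable formulation, water-diluted to the set dose, was then sprayed onto the foliage, and effects were scored three weeks later using previously defined criteria.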

[11] = system: windgrass; assay: Test Example 5: herbicidal effect by foliage application, plastic box (Table 20, symbol L); type: in vivo, windgrass (Apera spica-venti); conditions: 320 g/ha
Outline: as §1

[12] = system: southern crabgrass; assay: Test Example 5: herbicidal effect by foliage application, plastic box (Table 20, symbol F); type: in vivo, southern crabgrass (Digitaria ciliaris); conditions: 320 g/ha
Outline: as §1

[13] = system: barnyard grass; assay: Test Example 3: herbicidal effect by foliage application, Wagner pot (Table 18, symbol H); type: in vivo, barnyard grass (Echinochloa crus-galli); conditions: 320 g/ha
Outline: as §3

[14] = system: barnyard grass; assay: Test Example 5: herbicidal effect by foliage application, plastic box (Table 20, symbol H); type: in vivo, barnyard grass (Echinochloa crus-galli); conditions: 320 g/ha
Outline: as §1

[15] = system: redroot pigweed; assay: Test Example 5: herbicidal effect by foliage application, plastic box (Table 20, symbol N); type: in vivo, redroot pigweed (Amaranthus retroflexus); conditions: 320 g/ha
Outline: as §1

[16] = system: rice flat sedge; assay: Test Example 3: herbicidal effect by foliage application, Wagner pot (Table 18, symbol E); type: in vivo, rice flat sedge (Cyperus iria); conditions: 320 g/ha
Outline: as §3

[17] = system: lambsquarters; assay: Test Example 5: herbicidal effect by foliage application, plastic box (Table 20, symbol O); type: in vivo, lambsquarters (Chenopodium album); conditions: 320 g/ha
Outline: as §1

[18] = system: wild oat; assay: Test Example 5: herbicidal effect by foliage application, plastic box (Table 20, symbol I); type: in vivo, wild oat (Avena fatua); conditions: 320 g/ha
Outline: as §1

[19] = foliage application, three weeks after application
[20] = foliage application after 14-day growth, evaluated three weeks after application

COc1ccccc1-c1sc2cc(CO)ccc2c1-c1c(O)c(C)nn(C)c1=O [3-135]
R: persian speedwell, herbicidal effect grade [1, 19]: 4 (Herbicidal rate of 70% or more and less than 90%)
K: Italian ryegrass, herbicidal effect grade [2, 19]: 3 (Herbicidal rate of 40% or more and less than 70%)
J: blackgrass, herbicidal effect grade [3, 19]: 3 (Herbicidal rate of 40% or more and less than 70%)
P: chickweed, herbicidal effect grade [4, 19]: 4 (Herbicidal rate of 70% or more and less than 90%)
Herbicidal effect, C: oval-leafed pondweed [5]: 0 (Herbicidal rate of 5% or less (almost no effect))
G: green foxtail, herbicidal effect grade [6, 19]: 5 (Herbicidal rate of 90% or more (almost completely withered))
M: velvetleaf, herbicidal effect grade [7, 19]: 3 (Herbicidal rate of 40% or more and less than 70%)
Herbicidal effect, B: Japanese bulrush [8]: 2 (Herbicidal rate of 20% or more and less than 40%)
Herbicidal effect, A: late watergrass [9]: 2 (Herbicidal rate of 20% or more and less than 40%)
herbicidal effect on Chinese sprangletop (D) [10]: 3 (Herbicidal rate of 40% or more and less than 70%)
L: windgrass, herbicidal effect grade [11, 19]: 2 (Herbicidal rate of 20% or more and less than 40%)
F: southern crabgrass, herbicidal effect grade [12, 19]: 4 (Herbicidal rate of 70% or more and less than 90%)
herbicidal effect on barnyard grass (H) [13]: 4 (Herbicidal rate of 70% or more and less than 90%)
H: barnyard grass, herbicidal effect grade [14, 19]: 3 (Herbicidal rate of 40% or more and less than 70%)
N: redroot pigweed, herbicidal effect grade [15, 19]: 4 (Herbicidal rate of 70% or more and less than 90%)
herbicidal effect on rice flat sedge (E) [16]: 2 (Herbicidal rate of 20% or more and less than 40%)
O: lambsquarters, herbicidal effect grade [17, 19]: 2 (Herbicidal rate of 20% or more and less than 40%)
I: wild oat, herbicidal effect grade [18, 19]: 4 (Herbicidal rate of 70% or more and less than 90%)

CCCC(=O)Oc1c(C)nn(C)c(=O)c1-c1c(-c2ccccc2C)sc2c(Cl)cccc12 [4-061]
herbicidal effect on R: persian speedwell (evaluation grade 0-5) [1, 20]: 2 (Herbicidal rate of 20% or more and less than 40%)
herbicidal effect on K: Italian ryegrass (evaluation grade 0-5) [2, 20]: 0 (Herbicidal rate of 5% or less (almost no effect))
herbicidal effect on J: blackgrass (evaluation grade 0-5) [3, 20]: 0 (Herbicidal rate of 5% or less (almost no effect))
herbicidal effect on P: chickweed (evaluation grade 0-5) [4, 20]: 3 (Herbicidal rate of 40% or more and less than 70%)
Herbicidal effect, C: oval-leafed pondweed [5]: 0 (Herbicidal rate of 5% or less (almost no effect))
herbicidal effect on G: green foxtail (evaluation grade 0-5) [6, 20]: 0 (Herbicidal rate of 5% or less (almost no effect))
herbicidal effect on M: velvetleaf (evaluation grade 0-5) [7, 20]: 0 (Herbicidal rate of 5% or less (almost no effect))
Herbicidal effect, B: Japanese bulrush [8]: 0 (Herbicidal rate of 5% or less (almost no effect))
Herbicidal effect, A: late watergrass [9]: 3 (Herbicidal rate of 40% or more and less than 70%)
herbicidal effect on Chinese sprangletop (D) [10]: 3 (Herbicidal rate of 40% or more and less than 70%)
herbicidal effect on L: windgrass (evaluation grade 0-5) [11, 20]: 0 (Herbicidal rate of 5% or less (almost no effect))
herbicidal effect on F: southern crabgrass (evaluation grade 0-5) [12, 20]: 0 (Herbicidal rate of 5% or less (almost no effect))
herbicidal effect on barnyard grass (H) [13]: 3 (Herbicidal rate of 40% or more and less than 70%)
herbicidal effect on H: barnyard grass (evaluation grade 0-5) [14, 20]: 0 (Herbicidal rate of 5% or less (almost no effect))
herbicidal effect on N: redroot pigweed (evaluation grade 0-5) [15, 20]: 2 (Herbicidal rate of 20% or more and less than 40%)
herbicidal effect on rice flat sedge (E) [16]: 4 (Herbicidal rate of 70% or more and less than 90%)
herbicidal effect on O: lambsquarters (evaluation grade 0-5) [17, 20]: 0 (Herbicidal rate of 5% or less (almost no effect))
herbicidal effect on I: wild oat (evaluation grade 0-5) [18, 20]: 0 (Herbicidal rate of 5% or less (almost no effect))
